Measured values taken from patent US20200325505A1, “FILAMENTOUS FUNGI CAPABLE OF PRODUCING VERY LONG CHAIN FATTY ACIDS” (UT-Battelle, LLC, priority 2019, published 2020).
Residues, ends and D or L forms follow the SMILES beside them.

Key:
[1] = system: Mortierella elongata AG77; assay: Nitrogen source utilisation in Biolog 96-well plates, formazan formation after tetrazolium addition; assay type: cell-based; details: for Metabolized: Metabolized = more formazan formation than a control containing no nitrogen source, observed visually at 2 h, 24 h, 148 h
Procedure: Two 300 mL volumes of growth medium comprising 1 g/L KH2PO4, 1 g/L MgSO4 7H2O, 0.1 g/L CaCl2, 0.02 g/L FeNaEDTA, 0.1 g/L NaCl, and either 1 g/L NH4NO3 or 20 g/L sucrose were prepared. […] Aliquots of 200 μL of carbon-free medium or nitrogen-free medium were pipetted into each well of a set of 96-well plates previously prepared with lyophilized putative carbon or nitrogen sources (Biolog Inc., Hayward, Calif.). Inocula were prepared by perforating a culture of Mortierella elongata AG77 grown on 20 g/L potato dextrose agar with a 3 mm diameter cork borer and separating the surface mycelial mat from the solid growth medium using tweezers. Each well was inoculated with one inoculum. Cultures were incubated at 21° C. for 24 hours to allow metabolic changes to stabilize, and then 100 μL of 3 g/L tetrazolium chloride in water was added to each well.
Conclusions were based on rate and intensity of formazan formation using the 3-(4,5-dimethylthiazol-2-yl)-2,5-diphenyltetrazolium bromide ([…]) assay. “Metabolized” indicates more formazan formation than a control containing no nitrogen source, and “Toxic” indicates less formazan formation than a control containing no nitrogen source, “Metabolized” and “Toxic” assignments are mutually exclusive. In this example, a compound may be “Metabolized” or “Toxic,” but not both.

[2] = system: Mortierella elongata AG77; assay: Carbon source utilisation in Biolog 96-well plates, formazan formation after tetrazolium addition; assay type: cell-based; details: for Metabolized: Metabolized = more formazan formation than a control containing no carbon source, observed visually at 2 h, 24 h, 148 h; for Carbon sources that Mortierella elongata AG77 can metabolize: summary of Table 3
Procedure: Two 300 mL volumes of growth medium comprising 1 g/L KH2PO4, 1 g/L MgSO4 7H2O, 0.1 g/L CaCl2, 0.02 g/L FeNaEDTA, 0.1 g/L NaCl, and either 1 g/L NH4NO3 or 20 g/L sucrose were prepared. Acidity was adjusted to 5.5 using NaOH and volumes of growth medium were autoclaved 30 min at 121° C. to sterilize. Aliquots of 200 μL of carbon-free medium or nitrogen-free medium were pipetted into each well of a set of 96-well plates previously prepared with lyophilized putative carbon or nitrogen sources (Biolog Inc., Hayward, Calif.). Inocula were prepared by perforating a culture of Mortierella elongata AG77 grown on 20 g/L potato dextrose agar with a 3 mm diameter cork borer and separating the surface mycelial mat from the solid growth medium using tweezers. Each well was inoculated with one inoculum. Cultures were incubated at 21° C. for 24 hours to allow metabolic changes to stabilize, and then 100 μL of 3 g/L tetrazolium chloride in water was added to each well. Formazan formation was observed visually at 2 h, 24 h, and 148 h.
Conclusions were based on rate and intensity of formazan formation using the 3-4,5-dimethylthiazol-2-yl)-2,5-diphenyltetrazolium bromide (MTT) assay. “Metabolized” indicates more formazan formation than a control containing no carbon source, and “Toxic” indicates less formazan formation than a control containing no carbon source. “Metabolized” and “Toxic” assignments are mutually exclusive. In this example, a compound may be “Metabolized” or “Toxic,” but not both.

[3] = compound as nitrogen source, Toxic = less formazan formation than a control containing no nitrogen source
[4] = compound as carbon source, Toxic = less formazan formation than a control containing no carbon source

Molecule | Metabolized ([1]; compound as nitrogen source) | Metabolized ([2]; compound as carbon source) | Toxic [2, 4] | other results
CC(O)C(N)=O (racemic) [D,L-Lactamide] | no | – | – | Toxic [1, 3]: no
O=C1NC(=O)C(=O)N1 [Parabanic Acid] | yes | – | – | Toxic [1, 3]: no; Nitrogen sources that Mortierella elongata AG77 can metabolize ([1]; text summary of Table 4): can metabolize
CC(=O)N[C@@H]1C(O)O[C@H](CO)[C@@H](O)[C@@H]1O (stereo partly drawn) [N-Acetyl-D-Mannosamine] | no | – | – | Toxic [1, 3]: no
CCC(N)C(=O)O (racemic) [D,L-α-Amino-N-Butyric Acid] | no | – | – | Toxic [1]: no
N[C@@H]1C(O)O[C@H](CO)[C@@H](O)[C@@H]1O (stereo partly drawn) [D-Mannosamine] | no | – | – | Toxic [1]: no
CCCCCCC(N)C(=O)O (racemic) [D,L-α-Amino- Caprylic Acid] | no | – | – | Toxic [1, 3]: no
O=c1[nH]c(=O)c2[nH]cnc2[nH]1 [Xanthine] | no | – | – | Toxic [1]: no
N[C@H](CCC(=O)O)C(=O)O [D-Glutamic Acid] | no | – | – | Toxic [1, 3]: no
NC(=O)NC(N)=O [Biuret] | no | – | – | Toxic [1, 3]: no
CN [Methylamine] | no | – | – | Toxic [1, 3]: no
NCCN [Ethylenediamine] | no | – | – | Toxic [1]: no
NC(=O)NC1NC(=O)NC1=O (centres unmarked) [Allantoin] | no | – | – | Toxic [1]: no
CSCC[C@H](N)C(=O)N[C@@H](C)C(=O)O [Met-Ala] (H-Met-Ala-OH) | no | – | – | Toxic [1, 3]: no
N=C(N)NCCCCN [Agmatine] | no | – | – | Toxic [1, 3]: no
N[C@@H](CS)C(=O)O [L-Cysteine] | no | – | – | –
O=c1[nH]c(=O)c2ncn([C@@H]3O[C@H](CO)[C@@H](O)[C@H]3O)c2[nH]1 [Xanthosine] | no | – | – | Toxic [1]: no
NCCc1c[nH]cn1 [Histamine] | no | – | – | Toxic [1]: no
OC[C@@H](O)C(O)[C@H](O)CO [D-Arabitol] | – | no | no | –
O=C(O)[C@@H](O)[C@H](O)C(=O)O [D-Tartaric Acid] | – | no | – | –
C[C@H](N)C(N)=O [L-Alaninamide] | – | yes | no | Carbon sources that Mortierella elongata AG77 can metabolize [2]: can metabolize
CCCCCC(=O)O [Caproic Acid] | – | no | no | –
OC[C@@H](O)[C@H](O)[C@@H](O)CO [Xylitol] | – | no | – | Toxic [2]: no
NCC(=O)N[C@@H](CC(=O)O)C(=O)O [Glycyl-L-Aspartic Acid] (H-Gly-Asp-OH) | – | yes | no | Carbon sources that Mortierella elongata AG77 can metabolize [2]: can metabolize
OC[C@@H](O)[C@@H](O)[C@H](O)[C@H](O)CO [D-Mannitol] | – | no | – | Toxic [2]: no
CCCC(=O)O [Butyric Acid] | – | no | – | Toxic [2]: no
OC[C@H]1O[C@H](OCC2O[C@@H](O)[C@H](O)[C@@H](O)[C@@H]2O)[C@H](O)[C@@H](O)[C@H]1O (stereo partly drawn) [D-Melibiose] | – | no | no | –

Molecule | Metabolized ([1]; compound as nitrogen source) | Metabolized ([2]; compound as carbon source) | Toxic [2, 4] | other results
NCC(O)c1ccc(O)cc1 (racemic) [D,L-Octopamine] | – | no | no | –
O=C[C@@H](O)[C@H](O)[C@H](O)CO [D-Arabinose] | – | no | – | Toxic [2]: no
O=C(CO)[C@@H](O)[C@@H](O)[C@H](O)CO [D-Tagatose] | – | no | – | Toxic [2]: no
O=C1O[C@H](CO)[C@@H](O)[C@H]1O [D-Ribono-1,4-Lactone] | – | no | no | –
OC[C@H]1O[C@@H](Oc2ccc(O)cc2)[C@H](O)[C@@H](O)[C@@H]1O [Arbutin] | – | no | no | –
O=C(CO)[C@H](O)[C@H](O)[C@H](O)CO [D-Psicose] | – | yes | – | Toxic [2]: no; Carbon sources that Mortierella elongata AG77 can metabolize [2]: can metabolize
O=C(O)c1ccc(O)cc1 [4-Hydroxy Benzoic Acid] | – | no | – | Toxic [2]: no
O=C[C@@H](O)[C@@H](O)[C@H](O)[C@H](O)CO [D-Mannose] | – | no | – | Toxic [2]: no
OCc1ccccc1O[C@@H]1O[C@H](CO)[C@@H](O)[C@H](O)[C@H]1O [Salicin] | – | yes | – | Toxic [2]: no; Carbon sources that Mortierella elongata AG77 can metabolize [2]: can metabolize
OC[C@H]1O[C@@H]2O[C@H]3[C@H](O)[C@@H](O)[C@@H](O[C@H]4[C@H](O)[C@@H](O)[C@@H](O[C@H]5[C@H](O)[C@@H](O)[C@@H](O[C@H]6[C@H](O)[C@@H](O)[C@@H](O[C@H]7[C@H](O)[C@@H](O)[C@@H](O[C@H]8[C@H](O)[C@@H](O)[C@@H](O[C@H]9[C@H](O)[C@@H](O)[C@@H](O[C@H]1[C@H](O)[C@H]2O)O[C@@H]9CO)O[C@@H]8CO)O[C@@H]7CO)O[C@@H]6CO)O[C@@H]5CO)O[C@@H]4CO)O[C@@H]3CO [γ-Cyclodextrin] | – | no | no | –
OC[C@H]1O[C@H](O[C@H]2O[C@H](CO)[C@@H](O)[C@H](O)[C@H]2O)[C@H](O)[C@@H](O)[C@@H]1O [D-Trehalose] | – | yes | no | Carbon sources that Mortierella elongata AG77 can metabolize [2]: can metabolize
OC[C@H]1O[C@H](O)[C@H](O)[C@@H](O)[C@@H]1O [α-D-Glucose] | – | no | – | Toxic [2]: no
CCC(O)C(=O)O (stereo not drawn) [α-Hydroxy Butyric Acid] | – | no | no | –
O=C(O)C(=O)C(C(=O)O)C(O)C(=O)O (centres unmarked) [Oxalomalic Acid] | – | no | – | Toxic [2]: no
O=C(O)Cc1ccc(O)cc1 [p-Hydroxy Phenyl Acetic Acid] | – | no | no | –
OC[C@@]12OC[C@@H](O1)[C@@H](O)[C@@H](O)[C@@H]2O [Sedoheptulosan] | – | no | no | –
Pectin | – | – | – | Toxic [2]: no
CCCC(=O)C(=O)O [α-Keto-Valeric Acid] | – | no | no | –
C[C@H](O)C(=O)O [L-Lactic Acid] | – | yes | no | Carbon sources that Mortierella elongata AG77 can metabolize [2]: can metabolize
OC[C@H](O)C(O)[C@@H](O)CO [L-Arabitol] | – | no | no | –
O=C(O)CO [Glycolic Acid] | – | yes | no | Carbon sources that Mortierella elongata AG77 can metabolize [2]: can metabolize
O=C(O)[C@H](O)[C@@H](O)[C@H](O)[C@H](O)CO[C@H]1O[C@H](CO)[C@H](O)[C@H](O)[C@H]1O [Melibionic Acid] | – | no | no | –
O=C[C@H](O)[C@H](O)[C@@H](O)CO [L-Lyxose] | – | no | – | Toxic [2]: no
CC(O)CC(=O)O (stereo not drawn) [β-Hydroxy Butyric Acid] | – | no | – | Toxic [2]: no
CO[C@@H]1O[C@H](CO)[C@@H](O)[C@H](O)[C@H]1O [β-Methyl-D-Galactoside] | – | yes | no | Carbon sources that Mortierella elongata AG77 can metabolize [2]: can metabolize
O=C(O)CCC(=O)O [Succinic Acid] | – | no | – | Toxic [2]: no
